The structures appear in SMILES notation. Where two headings read alike, the source gives them in different places.

For experiment [1], the target named is T1, epidermal growth factor acceptor-tyrosinekinase complex (Homo sapiens, UniProt P00533).
T1 construct: endogenous in cells; host or cells: A-431 (membrane specimen, not solubilized)
The experiment is described as follows: Tyrosinekinase inhibitory activity (A-431 membrane specimen, EGF-stimulated, [γ-32P]ATP). Type of experiment: biochemical, human (A-431 cell line derived from human cancerous cell). The conditions noted are these: read-out: Inhibition rate (tyrosinekinase). The protocol:
Tyrosinekinase inhibitory activity of the compound of the present invention was measured by employing a method for measuring tyrosinekinase activity by G. Carpentor or by S. Cohen et al. [J. Biol. Chem., 254, 4884 (1979); J. Biol. Chem., 257, 1523 (1982)].
Cell line A-431 derived from human cancerous cell was cultured at 37° C. under the condition of 5% CO2 in Dulbecco's modified Eagle medium (made by DAINIPPON PHARMACEUTICAL CO., LTD.) containing 10% fetal bovine serum, 50 μg/ml of streptomycin, 50 IU/ml of penicillin G and 50 μg/ml of canamycin. The obtained cells were treated according to the above Cohen or Graham et al. to give membrane specimen containing epidermal growth factor acceptor-tyrosinekinase complex (hereinafter referred to as "membrane specimen"). The membrane specimen was employed in the following measurement without solubilization.
Sample dissolved in dimethylsulfoxide was added to a mixture of 20 mM of N-2-hydroxyethylpyperadino-N'-2-ethanesulfonate buffer (pH 7.4), 1 mM of MnCl2, 7.5 μg of bovine serum albumin and the membrane specimen (10 μg as protein). After incubation at 0° C. for 5 minutes, 100 ng of epidermal growth factor (hereinafter referred to as "EGF" was added and the mixture was further incubated at 0° C. for 15 minutes. [γ-^32 P]ATP (3000 Ci/mmol, 0.1 μCi) was added to make final volume of 70 μl. After incubation at 0° C. for 15 minutes, 50 μl of the reaction solution was soaked into Wattman 3 MM filter paper and immediately the reaction was stopped by 10% trichloroacetic acid-10 mM sodium pyrophosphate aqueous solution. The filter paper was sufficiently washed with the same solution and then washed with ethanol and dried. Radioactivity present in the filter paper was measured by liquid scintillation counter (A). Similarly, radioactivity was measured in case of the reaction without EGF (B), the reaction without the sample (C), and the reaction without both EGF and the sample (D) as a control.
Tyrosinekinase inhibition rate (%) was calculated by the following equation. [formula]

Experiment [2] deals with antigen-induced anaphylactic shock death. The experiment is described as follows: Protective effect against anaphylactic shock in actively sensitized guinea pigs. The experiment is classed as in vivo, guinea pig (male). The conditions noted are these: Cavia porcellus, oral, 30 minutes before antigen inhalation, survival 90 minutes or more, read-out: Protecting Effect (Number of test animal survivied/Number of test animal) (converted). The protocol:
[III] Protective effect against anaphylactic shock in actively sensitized guinea pigs
Antigen-induced anaphylactic shock death was observed according to John P. Devlin [Pulmonary and Antiallergic Drugs, John Wiley & Sons, 155 (1985)].
Each 100 mg/kg of ovalbumin dissolved in physiological saline was injected into peritoneal cavity and into gluteus of male guinea pigs weighing 250 to 350 g. 3 Days later, the animals were further injected intraperitoneally with ovalbumin (100 mg/kg). Those animals were employed for testing 3 to 4 weeks after first sensitization. Actively sensitized guinea pigs were pretreated subcutaneously with pyrilamine (1 mg/kg, 30 min.) to suppress histamine-dependent response and with propanolol ([…], 10 min.) to enhance the response induced by other than histamine before the antigen.
The animal was placed in a desiccator with a capacity of about 5 l and 0.5% aqueous solution of ovalbumin was inhaled with ultrasonic type nebulizer for five minutes. Anaphylactic shock death was observed and the animals survived for 90 minutes or more after antigen were estimated to be protected. The compounds of the present invention and antiasmatic agent were administered orally 30 minutes before the antigen inhalation. The control received vehicle alone similarly.

Experiment [3] concerns homologous passive cutaneous anaphylaxis (PCA). The experiment is described as follows: Inhibitory activity against homologous passive cutaneous anaphylaxis (PCA) in rats. Type of experiment: in vivo, rat (male Wistar). The settings on record: 300 mg/kg, oral, 30 minutes before the antigen (tranilast). On the procedure: [II]Inhibitory activity against homologous passive cutaneous anaphylaxis (PCA) in rats
Antiserum was prepared according to I. Mota [Immunology, 7, 681(1964)] and the PCA reaction was conducted according to Maruyama et al. [Nippon yakurigakkaishi, 74, 179(1978)].
(1) Preparation of antiserum
An ovalbumin solution (2 mg/ml) was injected intramuscularly into both thighs of male Wistar rats weighing 200 to 260 g in a volume of 0.5 ml/100 g body weight, and pertussis vaccine (Bordetella pertussis, 2×10^10 /ml, Chibaken Kessei Kenkyujo) was intraperitoneally administered at 1 ml/rat. Twelve days later, blood was taken from posterior aorta under ether anesthesia and antiserum was stored at -80° C.
Group of 4 male Wistar rats weighing 180 to 210 g were employed. Back of the animals was shaved and each 0.05 ml of antiserum (1:32 dilution) was injected intradermally at four sites on the back. After 48 hours, 1 ml of a mixture of ovalbumin (1 mg/ml) and Evans blue (5 mg/ml) was injected intravenously into the tail. 30 Minutes later, the animals were killed under ether anesthesia. The blue-dyed area (mm^2) formed was measured and an inhibition rate(%) was calculated as compared with control.
Test compound suspended in a 2.5% acacia containing 0.2% Tween 80 was administered orally in a volume of 0.5 ml/100 g body weight 1 hour before the antigen. Tranilast was administered orally 30 minutes before the antigen.

T1 sequence (P00533 25-1210): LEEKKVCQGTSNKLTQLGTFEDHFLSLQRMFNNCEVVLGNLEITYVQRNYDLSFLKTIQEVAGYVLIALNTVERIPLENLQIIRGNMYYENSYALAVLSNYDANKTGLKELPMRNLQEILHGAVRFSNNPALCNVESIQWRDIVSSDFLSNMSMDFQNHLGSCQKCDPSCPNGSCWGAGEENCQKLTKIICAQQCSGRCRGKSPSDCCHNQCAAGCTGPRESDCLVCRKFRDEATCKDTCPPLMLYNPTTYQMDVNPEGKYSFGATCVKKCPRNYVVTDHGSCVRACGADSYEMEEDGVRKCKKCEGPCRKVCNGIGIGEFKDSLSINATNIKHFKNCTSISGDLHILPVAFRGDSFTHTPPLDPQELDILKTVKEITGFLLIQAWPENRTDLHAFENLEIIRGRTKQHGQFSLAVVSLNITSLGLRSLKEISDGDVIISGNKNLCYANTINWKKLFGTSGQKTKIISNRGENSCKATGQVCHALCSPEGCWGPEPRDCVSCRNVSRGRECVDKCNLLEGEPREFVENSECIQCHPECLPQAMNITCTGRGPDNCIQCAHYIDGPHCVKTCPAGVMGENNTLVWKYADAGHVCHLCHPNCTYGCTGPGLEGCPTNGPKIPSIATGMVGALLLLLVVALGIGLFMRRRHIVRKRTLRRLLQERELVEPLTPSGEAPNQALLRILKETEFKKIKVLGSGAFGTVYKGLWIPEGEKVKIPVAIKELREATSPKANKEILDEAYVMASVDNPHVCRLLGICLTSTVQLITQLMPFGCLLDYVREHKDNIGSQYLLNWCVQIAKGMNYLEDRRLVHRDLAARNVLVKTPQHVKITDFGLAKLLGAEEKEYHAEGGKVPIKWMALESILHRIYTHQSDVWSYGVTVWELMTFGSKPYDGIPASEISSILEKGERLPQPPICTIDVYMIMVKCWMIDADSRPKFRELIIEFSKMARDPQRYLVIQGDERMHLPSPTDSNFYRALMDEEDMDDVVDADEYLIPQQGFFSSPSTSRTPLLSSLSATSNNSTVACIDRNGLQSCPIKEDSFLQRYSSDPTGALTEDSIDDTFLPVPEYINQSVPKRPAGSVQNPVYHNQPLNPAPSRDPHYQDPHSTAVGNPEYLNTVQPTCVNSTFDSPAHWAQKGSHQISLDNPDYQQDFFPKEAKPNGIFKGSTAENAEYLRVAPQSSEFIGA
T1 sequence (P01132 977-1029 partner limits assumed): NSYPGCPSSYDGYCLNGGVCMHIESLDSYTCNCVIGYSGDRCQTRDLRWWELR

Regarding `CCOc1cc(C=C(C#N)C(N)=O)cc(CSc2ccc(OC)cc2)c1O` [II], in experiment [1] (10 μM), the inhibition at 10 µM came out at 42%. Also, the responders at 30 mg/kg in experiment [2] is 75%.
In the same order, the values of `CCOc1cc(C=C2C(=O)NN(c3ccccc3)C2=O)cc(CSc2ccc(Br)cc2)c1O` [XXXIII] are 71% and 75%.
`Cn1c(=O)c2[nH]cnc2n(C)c1=O` [theophylline, reference compound]: in experiment [2], the responders at 30 mg/kg was 50%.
For `CCOc1cc(C=C2CCNC2=O)cc(CSc2ccccc2)c1OC(=O)c1ccccc1` [XXX], the inhibition at 10 µM in experiment [1] (10 μM) amounted to 32%. In addition, in experiment [2], the responders at 30 mg/kg is 50%.
Take `CCOc1cc(C=C(C#N)C(N)=O)cc(CSc2ccc(Br)cc2)c1O` [IV]: the inhibition at 10 µM in experiment [1] (10 μM) was 74%. For the same molecule, the responders at 100 mg/kg in experiment [2] was 25%.
On to `CCOc1cc(C=C(C#N)C(N)=O)cc(CSc2ccc(Cl)cc2)c1O` [XIV], for which, in experiment [1] (10 μM), the inhibition at 10 µM came out at 29%. Moreover, in experiment [2], the responders at 30 mg/kg is 100%.
The like results for `CCOc1cc(C=C(C#N)C(N)=O)cc(CSc2ccccc2)c1OC` [XIII] were, in that order, 31% and 50%.
The like results for `CCOc1cc(C=C2CCOC2=O)cc(CSc2ccc(Cl)c(Cl)c2)c1O` [XXV] were, in that order, 27% and 75%.
Turning to `COc1cc(C=C(C#N)C(N)=O)cc(CSc2ccccc2)c1O` [XII], the inhibition at 10 µM in experiment [1] was 86%. The responders at 30 mg/kg in experiment [2] was 50%.
Take `CCOc1cc(C=C(C#N)C(N)=O)cc(CSc2ccc(C(C)(C)C)cc2)c1O` [XVIII]: in experiment [1] (10 μM), the inhibition at 10 µM amounted to 37%. Also, the responders at 30 mg/kg in experiment [2] was 75%.
The like results for `CCOc1cc(C=C(C#N)C(N)=O)cc(CSc2ccccc2OC)c1O` [VII] were, in that order, 77% and 75%.
In the case of `CCOc1cc(C=C(C#N)C(N)=O)cc(CSc2ccc(O)cc2)c1O` [XX], the inhibition at 10 µM in experiment [1] (10 μM) turned out to be 91%. Also, in experiment [2], the responders at 100 mg/kg was 25%.
As to `CCOc1cc(C=C(C#N)C(N)=O)cc(CSc2c(Cl)cccc2Cl)c1O` [X], the inhibition at 10 µM in experiment [1] (10 μM) was found to be 44%. Further, in experiment [2], the responders at 30 mg/kg is 75%.
On to `CCOc1cc(C=C2CCNC2=O)cc(CSc2ccc(OC)cc2)c1OC` [XXIX], for which the inhibition at 10 µM in experiment [1] (10 μM) turned out to be 30%. Moreover, in experiment [2], the responders at 100 mg/kg was 25%.
The like results for `CCOc1cc(C=C(C#N)C(N)=O)cc(CSc2ccccc2C(=O)OC)c1OC(C)=O` [XXI] were, in that order, 31% and 25%.
In the same order, the values of `N#CC(=Cc1cc(O)c(O)c(CSc2ccccc2)c1)C(N)=O` [XIX] are 100% and 25%.
`CCOc1cc(C=C(C#N)C(N)=O)cc(CSCCCc2ccccc2)c1O` [VI]: the inhibition at 10 µM in experiment [1] (10 μM) stood at 55%. Also, the responders at 100 mg/kg in experiment [2] was 25%.
The like results for `CCOc1cc(C=C(C#N)C(N)=O)cc(CSc2ccccc2)c1OC(=O)c1ccccc1` [XVI] were, in that order, 40% and 25%.
Take `CCOc1cc(C=C(C#N)C(N)=O)cc(CSc2cccc(Cl)c2)c1O` [XI]: in experiment [1] (10 μM), the inhibition at 10 µM was 54%. Moreover, the responders at 100 mg/kg in experiment [2] was 25%.
The like results for `CCCCOc1cc(C=C2C(=O)NN(c3ccccc3)C2=O)cc(CSc2ccccc2)c1O` [XXXV] were, in that order, 100% and 25%.
Turning to `COc1ccc(/C=C/C(=O)Nc2ccccc2C(=O)O)cc1OC` [tranilast, reference compound], the “Inhibition rate (PCA reaction, blue-dyed area)” value in experiment [3] is listed as 40%. Further, the responders at 100 mg/kg in experiment [2] was 0%.
Take `CCOC(=O)C(=Cc1cc(CSc2ccc(C(C)(C)C)cc2)c(O)c(OCC)c1)S(C)(=O)=O` [XXIII]: in experiment [1] (10 μM), the inhibition at 10 µM came out at 40%. Also, the responders at 100 mg/kg in experiment [2] is 25%.
With `CCOc1cc(C=C(C#N)C(N)=O)cc(CSc2ccc(Cl)c(Cl)c2)c1O` [XV], the inhibition at 10 µM in experiment [1] (10 μM) is 69%. Further, in experiment [2], the responders at 30 mg/kg is 100%.
With `CCOc1cc(C=C(C#N)C(N)=O)cc(CSc2ccc(C)cc2)c1O` [IX], the inhibition at 10 µM in experiment [1] (10 μM) amounted to 58%. Besides, the responders at 30 mg/kg in experiment [2] was 50%.
In the same order, the values of `O=C1NN(c2ccccc2)C(=O)C1=Cc1cc(O)c(O)c(CSc2ccccc2)c1` [XXXIV] are 96% and 50%.
On to `O=C1OCCC1=Cc1cc(O)c(O)c(CSc2ccc([N+](=O)[O-])cc2)c1` [XXVI], for which the inhibition at 10 µM in experiment [1] (10 μM) stood at 35%. Moreover, the responders at 100 mg/kg in experiment [2] is 25%.
As to `CCOc1cc(C=C(C#N)C(N)=O)cc(CSc2ccccc2)c1OC(C)=O` [XVII], the inhibition at 10 µM in experiment [1] (10 μM) stood at 36%. In experiment [2], the responders at 100 mg/kg is 25%.
The like results for `COc1cc(C=C2C(=O)NN(c3ccccc3)C2=O)cc(CSc2ccccc2)c1O` [XXXII] were, in that order, 100% and 25%.
In the same order, the values of `COc1cc(C=C2CCNC2=O)cc(CSc2ccc(C)cc2)c1O` [XXVIII] are 55% and 25%.
Consider `CCOc1cc(C=C(C#N)C(N)=O)cc(CSc2ccc([N+](=O)[O-])cc2)c1O` [III], for which, in experiment [1] (10 μM), the inhibition at 10 µM is 42%. The responders at 100 mg/kg in experiment [2] was 25%.
For `CCOc1cc(C=C2C(=O)NN(c3ccccc3)C2=O)cc(CSc2ccc(Cl)cc2)c1O` [XXXVI], the inhibition at 10 µM in experiment [1] (10 μM) worked out at 91%. Further, the responders at 100 mg/kg in experiment [2] is 25%.
Consider `CCOc1cc(C=C(C#N)C(N)=O)cc(CSc2c(F)c(F)c(F)c(F)c2F)c1O` [V], for which the inhibition at 10 µM in experiment [1] (10 μM) was determined as 60%. For the same molecule, in experiment [2], the responders at 30 mg/kg was 50%.
On to `CCOc1cc(C=C(C#N)C(N)=O)cc(CSc2cccc(OC)c2)c1O` [VIII], for which the inhibition at 10 µM in experiment [1] (10 μM) was determined as 72%. The responders at 100 mg/kg in experiment [2] was 25%.

(Values after patent US4853403A, “3-phenylthiomethylstyrene derivative, process for preparing the same, and antiallergic agent and tyrosinekinase inhibiting agent containing the same” (Kanegafuchi Kagaku Kogyo Kabushiki Kaisha, priority 1985, dated 1989).)
